Reference: paper PMC3726769 (PLoS ONE, 2013)
Where two headings read alike, the source gives them in different places.

Key:
α2 I E318W [1] = type: binding, human
α2 I E318W [2] = type: binding, human; remark: listed apart in the source
Method: (§1) I domain adhesion was determined colorimetrically using a solid-phase binding assay, modified slightly from our previous studies, [16], [32] and specified below. Wells were coated using 1 μg peptide in 100 μl 0.01 M acetic acid for 1 h at 22°C on Immulon-2 HB 96-well plates (Thermo Life Sciences, Basingstoke, UK), and blocked for 1 h with 200 μl of TBS containing 50 mg/ml bovine serum albumin). Wells were washed four times with 200 μl of the adhesion buffer (TBS with 1 mg/ml bovine serum albumin) before adding 100 μl of adhesion buffer containing 10 μg/ml of recombinant GST I domains in the presence of either 2 mM MgCl2 or EDTA for 1 h at room temperature. Wells were washed five times with 200 μl of adhesion buffer containing MgCl2, before adding 100 μl of adhesion buffer containing Amersham anti-GST-HRP conjugate (RPN1236; GE Healthcare) at 1:10,000 dilution for 1 h at room temperature. After washing, colour was developed using an ImmunoPure TMB Substrate Kit (Pierce) according to the manufacturer’s instructions. Replacing Mg^2+ with EDTA abolished binding (not shown). Data for short peptide binding were compared using 2-way ANOVA to establish the overall effect of the E318W mutation, and using repeated measures 1-way ANOVA for specific comparisons (Prism 5.0 for Mac, GraphPad).

wild-type α2 I domain [3] = assay: Solid-phase binding assay of GST I domain to immobilised triple-helical peptides; design: species or system human; conditions: 1 μg peptide coated per well; 10 μg/ml GST I domain, 2 mM MgCl2; six paired experiments in triplicate (Fig. 2A)
Method: as §1

[4] = target: collagen-like triple-helical peptide [GPO]2GFOGER[GPO]3; assay: SEC; analytical SEC on Superdex 200 10/300 GL at 4°C, 100 mM Tris-HCl pH 7.5, 150 mM NaCl, 2 mM MgCl2; I domain 1 mg/ml with a greater than 2-fold molar excess of peptide, 30 min at 4°C before injection
α2 I E318W [5] = assay: Analytical size exclusion chromatography of I domain-collagen peptide complexes; type: binding, human
Method: The lyophilised triple-helical peptides (GFOGER, GMOGER, GAOGER) were dissolved in 500 μl of 1 mg/ml stock solutions of either wild-type or E318W α2 I domains. The amount of peptide was chosen so as to yield a greater than 2-fold molar excess of peptide. After incubation for 30 min at 4°C, the solutions were injected onto a Superdex 200 10/300 GL column and run at 4°C at a flow rate of 0.5 ml/min in SEC buffer.

wild-type α2 I domain [6] = assay: as above; type: binding, human
Method: After incubation for 30 min at 4°C, the solutions were injected onto a Superdex 200 10/300 GL column and run at 4°C at a flow rate of 0.5 ml/min in SEC buffer.

[7] = target: T1, collagen-like triple-helical peptide [GPO]2GMOGER[GPO]3 (O denotes hydroxyproline; C-terminal amide); assay: SEC; analytical SEC on Superdex 200 10/300 GL at 4°C, 100 mM Tris-HCl pH 7.5, 150 mM NaCl, 2 mM MgCl2; I domain 1 mg/ml with a greater than 2-fold molar excess of peptide, 30 min at 4°C before injection; conditions: both partners purified
T1 chain: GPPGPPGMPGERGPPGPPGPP

[8] = 1 μg peptide coated per well, 10 μg/ml GST I domain, 2 mM MgCl2, six paired experiments in triplicate (Fig. 2A)
[9] = solid-phase binding, shorter triple-helical peptides, A450, six paired experiments (Fig. 2A), ANOVA p<0.001
[10] = SEC, Superdex 200, 4°C, peptide in >2-fold molar excess (Fig. 3)
[11] = SEC, Superdex 200, 4°C, peptide in >2-fold molar excess, 1 mg/ml I domain, 30 min incubation at 4°C, 100 mM Tris-HCl pH 7.5, 150 mM NaCl, 2 mM MgCl2

GAOGER
Change in affinity of E318W compared with wild-type, increasing dose of I domain (α2 I E318W [1]): substantially greater increase in affinity

GASGER
Change in binding of α2 I E318W compared with wild-type α2 I domain (α2 I E318W [2]): several-fold increases

GFOGEK
Binding of α2 I E318W to shorter triple-helical Gxx'GEx'' peptides (A450) (α2 I E318W [2]): bound well
Binding of wild-type α2 I domain to shorter triple-helical Gxx'GEx'' peptides (A450) (wild-type α2 I domain [3]): bound well

GFOGER [positive control]
Change in affinity of E318W compared with wild-type, increasing dose of I domain (α2 I E318W [1]; increasing concentrations of I domain on peptide coatings, single-site binding curves, 3 replicates in a single experiment (Fig. 2B)): modest increase in affinity
Binding of α2 I E318W to shorter triple-helical Gxx'GEx'' peptides (A450) (α2 I E318W [2]; [8]): bound well
Binding of wild-type α2 I domain to shorter triple-helical Gxx'GEx'' peptides (A450) (wild-type α2 I domain [3]): bound well

GFPGER
Binding of α2 I E318W to shorter triple-helical Gxx'GEx'' peptides (A450) (α2 I E318W [2]): bound well
Change in binding of α2 I E318W compared with wild-type α2 I domain (α2 I E318W [2]; [9]): equally well
Binding of wild-type α2 I domain to shorter triple-helical Gxx'GEx'' peptides (A450) (wild-type α2 I domain [3]): bound well

GLKGEN
Change in binding of α2 I E318W compared with wild-type α2 I domain (α2 I E318W [2]): several-fold increases

GLOGEA
Binding of α2 I E318W to shorter triple-helical Gxx'GEx'' peptides (A450) (α2 I E318W [2]): bound well
Binding of wild-type α2 I domain to shorter triple-helical Gxx'GEx'' peptides (A450) (wild-type α2 I domain [3]): bound well

GLOGEN
Binding of α2 I E318W to shorter triple-helical Gxx'GEx'' peptides (A450) (α2 I E318W [2]; [8]): bound well
Binding of wild-type α2 I domain to shorter triple-helical Gxx'GEx'' peptides (A450) (wild-type α2 I domain [3]): bound well

GLOGER
Binding of α2 I E318W to shorter triple-helical Gxx'GEx'' peptides (A450) (α2 I E318W [2]; [8]): bound well
Binding of wild-type α2 I domain to shorter triple-helical Gxx'GEx'' peptides (A450) (wild-type α2 I domain [3]): bound well

GMOGER
Change in affinity of E318W compared with wild-type, increasing dose of I domain (α2 I E318W [1]): substantially greater increase in affinity
Change in binding of α2 I E318W compared with wild-type α2 I domain (α2 I E318W [2]): doubling in amplitude
Change in binding of α2 I E318W compared with wild-type α2 I domain (α2 I E318W [2]; [9]): substantial increase

GQRGER
Change in binding of α2 I E318W compared with wild-type α2 I domain (α2 I E318W [2]): several-fold increases

GROGER
Binding of α2 I E318W to shorter triple-helical Gxx'GEx'' peptides (A450) (α2 I E318W [2]): bound well
Binding of wild-type α2 I domain to shorter triple-helical Gxx'GEx'' peptides (A450) (wild-type α2 I domain [3]): bound well

GVOGEA [shorter triple-helical peptide with the α1β1-specific motif GVOGEA]
Binding of α2 I E318W to shorter triple-helical Gxx'GEx'' peptides (A450) (α2 I E318W [2]; [8]): not recognised
Binding of wild-type α2 I domain to shorter triple-helical Gxx'GEx'' peptides (A450) (wild-type α2 I domain [3]): not recognised

His-tagged integrin α2 I domain E318W (for SEC and crystallisation) (from UniProt P17301 171-368) (domain or fragment)
stoichiometry N (I domains per triple-helical peptide) [4]: 2

[GPO]2GFOGER[GPO]3 [GFOGER peptide, short homotrimeric collagen-like peptide [GPO]2GFOGER[GPO]3 used for SEC and crystallisation]
Reduction in elution volume of α2 I E318W on addition of peptide (α2 I E318W [5]; [10]): 1.4 mL
Complex formation with α2 I E318W in solution (I domain:peptide stoichiometry) (α2 I E318W [5]; [11]): appeared to form a 2:1 complex
Apparent mass of the α2 I E318W-peptide complex from calibration of the SEC column (α2 I E318W [5]; Superdex 200, 4°C (Fig. 3), calculated mass 56.1 kDa): 44 kDa
Reduction in elution volume of wild-type α2 I domain on addition of peptide (wild-type α2 I domain [6]; [10]): 0.6 mL
Complex formation with wild-type α2 I in solution (I domain:peptide stoichiometry) (wild-type α2 I domain [6]; [11]): formed a 1:1 complex
Apparent mass of the wild-type α2 I-peptide complex derived from the calibration of the SEC column (wild-type α2 I domain [6]; Superdex 200, 4°C (Fig. 3)): 31 kDa

wild-type integrin α2 I domain used in analytical SEC (domain or fragment)
stoichiometry N (I domain per triple-helical peptide) [4]: 1

B1: His-tagged integrin α2 I domain E318W (for SEC and crystallisation) (domain or fragment, human)
chain: SLIDVVVVCDESNSIYPWDAVKNFLEKFVQGLDIGPTKTQVGLIQYANNPRVVFNLNTYKTKEEMIVATSQTSQYGGDLTNTFGAIQYARKYAYSAASGGRRSATKVMVVVTDGESHDGSMLKAVIDQCNHDNILRFGIAVLGYLNRNALDTKNLIKEIKAIASIPTERYFFNVSDWAALLEKAGTLGEQIFSIEGTV
notes: also called α2 I E318W; E318W I domain; source: E. coli Origami, purified (HisTrap FF, SEC on Superdex 75)
stoichiometry N [7]: 1 I domain per triple-helical peptide
